The nature of series [1]: MDCK-MDR1 permeability assay. It counts as in vitro ADME. Conditions: dog, MDCK-MDR1, pH 7.4, 5 μM, 2 hours; for Papp A→B at 2 h, 5 μM: apical to basolateral; for Papp B→A at 2 h, 5 μM: basolateral to apical. Here is the method:
(§1) Preparation of MDCK-MDR1 Cells. Cell culture medium of was added to each well of the Transwell insert (50 μL) and reservoir (25 mL). The HTS transwell plates were then incubated at 37° C., 5% CO2 for 1 hour before cell seeding. MDCK-MDR1 cells were diluted to 1.56×10^6 cells/mL with culture medium and 50 μL of cell suspension were dispensed into the filter well of the 96-well HTS Transwell plate. Cells were cultivated for 4-8 days in a cell culture incubator at 37° C., 5% CO2, 95% relative humidity. Cell culture medium was replaced every other day, beginning no later than 24 hours after initial plating.
(§2) Preparation of Stock Solutions. 10 mM stock solutions of test compounds were prepared in DMSO. The stock solutions of positive controls were prepared in DMSO at the concentration of 10 mM. Metoprolol, prazosin and imatinib were used as control compounds in this assay.
(§3) Assessment of Cell Monolayer Integrity. Medium was removed from the reservoir and each Transwell insert and replaced with prewarmed fresh culture medium. Transepithelial electrical resistance (TEER) across the monolayer was measured using Millicell Epithelial Volt-Ohm measuring system (Millipore, USA). The Plate was returned to the incubator once the measurement was done. TEER value should be greater than 42 ohm·cm2, which indicates the well-qualified MDCK-MDR1 monolayer. The TEER value was calculated according to the following equation: TEER measurement (ohms)×Area of membrane(cm^2)=TEER value(ohm·cm^2)
(§4) Assay Procedures. The MDCK-MDR1 plate was removed from the incubator and washed twice with pre-warmed HBSS (10 mM HEPES, pH 7.4), and then incubated at 37° C. for 30 minutes. The stock solutions of test compounds and controls were diluted in DMSO to get 1 mM solutions and then diluted with HBSS (10 mM HEPES, pH 7.4) to get 5 μM working solutions. The final concentration of DMSO in the incubation system was 0.5%.
(§5) To determine the rate of drug transport in the apical to basolateral direction, 125 μL of 5 μM working solution of test compound and control compound were added to the Transwell insert (apical compartment), and transfer 50 μL sample (DO sample) immediately from the apical compartment to a new 96-well plate. The wells in the receiver plate (basolateral compartment) were filled with 235 μL of HBSS (10 mM HEPES, pH 7.4). The assay was performed in duplicate.
(§6) To determine the rate of drug transport in the basolateral to apical direction, 285 μL of 5 μM working solution of test compound and control compound were to the receiver plate wells (basolateral compartment), and transfer 50 μL sample (DO sample) immediately from the basolateral compartment to a new 96-well plate. The wells in the Transwell insert (apical compartment) were filled with 75 μL of HBSS (10 mM HEPES, pH 7.4). The plates were incubated at 37° C. for 2 hours. At the end of the incubation, 50 μL samples from donor sides (apical compartment for Ap→Bl flux, and basolateral compartment for Bl→Ap) and receiver sides (basolateral compartment for Ap→Bl flux, and apical compartment for Bl→Ap) were transferred to wells of a new 96-well plate, followed by the addition of 4 volume of cold methanol containing appropriate internal standards (IS). Samples were Vortexed for 5 minutes and then centrifuged at 3,220 g for 40 minutes. An aliquot of 100 μL of the supernatant was mixed with an appropriate volume of ultra-pure water before LC-MS/MS analysis.
(§7) To determine the Lucifer Yellow leakage after 2 hour transport period, stock solution of Lucifer yellow was prepared in DMSO and diluted with HBSS (10 mM HEPES, pH 7.4) to reach a final concentration of 100 μM. Lucifer yellow solution (100 μL) was added to each Transwell insert (apical compartment), followed by filling the wells in the receiver plate (basolateral compartment) with 300 μL of HBSS (10 mM HEPES, pH 7.4). […]

For a further series, the system named is MDR1. Briefly: MDCK-MDR1 permeability assay. Conditions: dog, MDCK-MDR1, pH 7.4; Papp(B-A)/Papp(A-B). It counts as in vitro ADME. The procedure: as §1, §2, §3, §4, §5, §6, §7

This note sets out measurements from patent US10947196B2, “Beta adrenergic agonist and methods of using the same” (CURASEN THERAPEUTICS, INC., priority 2019, dated 2021).

As a reminder, the Papp A→B is how fast a substance crosses the layer from the apical side. A low value points to slow passage. For orientation: Papp B→A means the apparent permeability from the basolateral to the apical side of a cell layer. A word on the efflux ratio: it is a quotient of directional permeabilities that is used to spot active efflux.

As for `CC(C)(C)NC[C@H](O)c1cccc(C(F)(F)F)n1` [Compound 03-3], in series [1], the Papp A→B at 2 h, 5 μM came out at 25.3 ×10⁻⁶ cm/s and the basolateral-to-apical permeability (Papp B→A) at 2 h, 5 μM turned out to be 19.8 ×10⁻⁶ cm/s. The efflux ratio at 2 h, 5 μM in the series with MDR1 came to 0.78.

In series [1], `CC(C)(C)NC[C@H](O)c1cccc(C#N)n1` [Compound 03-5, (S)-6-(2-(tert-butylamino)-1-hydroxyethyl)picolinonitrile] gave a Papp A→B at 2 h, 5 μM of 15.2 ×10⁻⁶ cm/s and an apparent permeability from basolateral to apical (Papp B→A) at 2 h, 5 μM of 16.2 ×10⁻⁶ cm/s. Moreover, the efflux ratio at 2 h, 5 μM in the series with MDR1 was determined as 1.06.

In series [1], `Cc1ncccc1[C@@H](O)CNC(C)(C)C` [Compound 03-115] came in with a Papp A→B at 2 h, 5 μM of 6.96 ×10⁻⁶ cm/s and a Papp B→A at 2 h, 5 μM of 11 ×10⁻⁶ cm/s. Moreover, in the series on MDR1, the efflux ratio at 2 h, 5 μM is 1.58.
